In patent US20100003711A1, “Methods to identify therapeutic agents” (THE SCRIPPS RESEARCH INSTITUTE, priority 2005, published 2010):

Columns and labels:
J774.1 macrophages = experiment: Lipid-loading assay (foam cell formation); format: cell-based, murine; details: LDL 100 μg/mL with 4a or 5a (20 μM), 72 h, unactivated J774.1 macrophages
Experimental: Lipid-loading assay (foam cell formation). J774.1 macrophages were incubated in ATCC-recommended media containing 10% fetal bovine serum under a controlled atmosphere of 5 or 7% CO2 at 37° C., in 8-well chamber slides. […] At termination, cells were washed twice with PBS (pH 7.4). The cells were then fixed with 6% (v/v) paraformaldehyde in PBS for 30 minutes, rinsed with propylene glycol for 2 minutes and lipids were stained with 5 mg/ml Oil Red 0 for 8 minutes. The cells were counterstained with Harris' hematoxylin for 45 seconds, and background staining was removed with 6% paraformaldehyde followed by washing once in PBS and once in tap water. Cover slips were mounted onto the glass slides using glycerol and the slide preparations were examined by light microscopy. The number of lipid-laden cells was scored out of a total of at least 100 cells counted in a single field in each slide, and expressed as a percentage of total cells. Photographs were taken at 100× magnification.

[1] = test system: murine macrophage J774A.1; experiment: Modified Boyden chamber migration (chemotaxis) assay; format: cell-based
Experimental: Chemotaxis and invasion assays were performed using a modified Boyden chamber migration assay. Zwirner et al. (1998) Eur. J. Immunol. 28: 1570-77; Wilkinson (1988) Methods Enzymol. 162: 38-50. Assays were set up on MultiScreen-MIC plates (Millipore, Billerica, Mass., USA) with polyvinylpyrrolidone-free polycarbonate membranes (5 μm pore size). Cells (murine macrophage J774A.1) were washed and resuspended in serum-free DMEM containing 0.2% BSA at 1×10^6 cells/ml. Fifty microliters of cells were added to the upper wells and 150 μl of chemoattractant in DMEM/0.2% BSA were added to the lower wells of the microchamber. Incubation time was for 4 h at 37° C. in an 8% CO2 atmosphere. After swiping cells off the upper side of the membrane, cells on the lower side were visualized by either staining and phase contrast microscopy, or fluorescence. Cells that had adhered to the membrane were stained using a DiffQuik staining kit (Dade Behring, Newark, Del.). Each experiment was performed in triplicate and the numbers of migrating cells were counted in five fields at ×200. Cells harvested with PBS-EDTA for fluorescent labeling were washed two times with PBS, then resuspended in serum-free medium containing calcein AM (5 μM). Cells were incubated for 30 min (37° C., 5% CO2) with gentle intermittent mixing. Calcein-labeled cells were washed twice, and calcein fluorescence ([…]) was measured using a SPECTRAmax™ GEMINI dual-scanning microplate spectrofluorometer. Fluorescence measurements were compared to a standard curve, generated by dilution of cells in PBS/BSA in 100 μl, dispensed into 96-well plates. Fluorescence was quantified as described above.

[2] = Aldolization of secoketoaldehyde 4a with atherosclerotic artery and blood fractions (1H NMR); format: in vitro ADME, human; details: in the presence of lyophilized PBS
Experimental: Aldolization of secoketoaldehyde 4a with atherosclerotic artery and bloodfractions. […] To this solution was added either a) atherosclerotic artery (2.1 mg) that had been homogenized in PBS (1 ml) in a tissue homogenizer and then lyophilized to dryness, b) lyophilized human blood (1 ml), c) lyophilized human plasma (1 ml) or d) PBS lyophilized (1 ml). At time points samples were removed and analyzed by ^1H NMR vide supra.

E-selectin (CD62E) = experiment: Endothelial adhesion molecule expression by ELISA, E-selectin; format: cell-based, human
Experimental: (§1) Endothelial cell surface adhesion molecule expression was measured by ELISA, using anti-human CD54 (ICAM-1), CD106 (VCAM-1) and CD62E (E-Selectin) antibodies (Leinco Technologies, Inc., St. Louis, Mo.). The ELISA method was modified from previously described procedures.
(§2) Cells were then incubated with antibodies to VCAM-1, E-selectin, or ICAM-1 diluted 1:400 in PBS containing 5% FCS at 37° C. for 30 min. Wells were washed two times with PBS, then incubated with horseradish peroxidase (HRP)-conjugated goat anti-mouse IgG (Southern Biotechnology Associates, Birmingham, Ala., USA) in PBS/5% FCS at 37° C. for 30 min. The wells were washed four times with PBS, then incubated with H2O2/3,3′,5,5′-tetramethyl-benzidine peroxidase substrate (Pierce Chemical, Rockford, Ill., USA) for 30 min in the dark. The reaction was stopped by adding 25 μl of 8 N H2SO4, and the plates read on a microplate reader, blanking on wells stained with only secondary antibody. Each assay was performed in triplicate and the data are reported as the mean±SEM as a percentage of the expression level of the vehicle. To study the effect of cholesterol ozonation product 5a concentration (5-50 μM) on E-selectin expression, the assay was performed in an identical fashion as described above, with each point being the mean±SEM of at least duplicate measurements.

U-937 monocytes cells = experiment: Monocyte adhesion to endothelial cell monolayers by fluorescence spectroscopy; format: cell-based; details: alone or in complex with LDL
neuronal cell lines = experiment: Cytotoxicity towards neuronal cell lines (similar procedures); format: cell-based
VCAM-1 (CD106) = experiment: Endothelial adhesion molecule expression by ELISA, VCAM-1; format: cell-based, human
Experimental: as §1, §2

ICAM-1 (CD54) = experiment: Endothelial adhesion molecule expression by ELISA, ICAM-1; format: cell-based, human
Experimental: as §1, §2

[3] = HAAE-1, 25 μM compound in the presence of LDL, 4 h

In the case of `CC(C)CCC[C@@H](C)[C@H]1CCC2C(CC=O)C([C@@]3(C)CC[C@H](O)CC3=O)CC[C@@]21C` (some centres unmarked) [4a, 3βHydroxy-5-oxo-5,6-secocholestan-6-al], the “lipid-loading of macrophages / foam cell formation” value (J774.1 macrophages) is reported as “began lipid-loading and foam cells began to appear”, the “recruitment (migration) of macrophages” value ([1]; 0-25 μM, 4 h, P<0.001) is reported as “dose-dependent recruitment of macrophages” and the migration of macrophages ([1]; compound co-incubated with BSA) is reported as “macrophage migration still occurs”. For the same compound, the migration of macrophages ([1]; compound complexed with native LDL (100 μg/ml)) was “no significant migration”, the “aldolization of 4a” value [2] was “no aldolization” and the “induction of E-selectin levels” value (E-selectin (CD62E); HAAE-1, 1.25 μM complexed with LDL (100 μg/mL protein)) was 2 fold. The “induction of E-selectin levels” value (E-selectin (CD62E); HAAE-1, 50 μM complexed with LDL (100 μg/mL protein)) was “about 8 fold”, the “selectin (E-selectin) expression” value (E-selectin (CD62E); HAAE-1, not complexed with LDL) was “no effects” and the “adhesion of U-937 monocytes to endothelial cell monolayers, above that of LDL alone” value (U-937 monocytes cells) was “neither ozonolysis product 4a nor 5a, alone or in complex with LDL, nor CuOx-LDL significantly increased adhesion”. The “cytotoxicity towards neuronal cell lines” value (neuronal cell lines) was “cytotoxic”, the VCAM-1 levels (VCAM-1 (CD106); [3]) was “remain unchanged” and the “integrin expression (VCAM-1)” value (VCAM-1 (CD106); HAAE-1, not complexed with LDL) was “no effects”. The ICAM-1 levels (ICAM-1 (CD54); [3]) was “remain unchanged” and the “integrin expression (ICAM-1)” value (ICAM-1 (CD54); HAAE-1, not complexed with LDL) was “no effects”.
